Legend:
[1] = test system: IL-2-induced JAK1/JAK3 signal pathway; assay: IL-2-induced proliferation of KHYG-1 cells (JAK1/JAK3 signal); type: cell-based, human; conditions: Homo sapiens; KHYG-1 cell proliferation, IL-2 10 ng/mL, 72 hours; read-out: Inhibition activity IC50 on IL-2-induced JAK1/JAK3 signal pathway
In short: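 KHYG-1 NK lymphoma cells were cultured with IL-2 and test compound at various doses for 72 h at 37 °C and 5% CO2, and proliferation was read with alamarBlue fluorescence. Inhibition was normalized to wells without compound or cytokine (0%) and IL-2 wells without compound (100%), and C50 was derived from the dose-inhibition data.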

TYK2 JH2 domain = TYK2 JH2 domain (Homo sapiens (Human), UniProt P29597); assay: TYK2 JH2 domain FRET tracer assay; type: binding; conditions: FRET 665/615 nm; read-out: Inhibition activity IC50 on TYK2 JH2 domain
Description: Compound of the present invention formulated into different concentrations (series 3 times dilutions, started from 60 μM, 11 concentrations in total) was added to 384-well plate, followed by 5 μL of enzyme (i.e., TYK2 JH2 domain), Tb antibody (Cisbio) and tracer. The mixture was incubated at 25° C. for 60 min and left at 4° C. overnight.

[2] = test system: INF-α-induced pSTAT5 in human PBMC; assay: INF-α-induced pSTAT5 in human PBMC (FACS, CD3 positive cells); type: cell-based; conditions: Homo sapiens, PBMC, IFN-α 30 ng/ml, read-out: Inhibition activity IC50 on INF-α-induced pSTAT5 in human PBMC
Description: hPBMC (available from Shanghai AoNeng Biotechnology Co., Ltd.) was inoculated in 96-well plate, added with compound of the present invention (at concentrations of 40 nM and 200 nM), incubated for 60 min (compound in concentrations of 2 nM, 10 nM respectively during the incubation); added with 30 ng/ml of stimulating factor IFN-α (BioLegend) together with anti-CD3 antibody (Biolegend) and then continued to be incubated for 30 min. After the incubation, each well was added with 1 mL of fixing solution (BD Biosciences), the obtained mixture was incubated for 10 min followed by centrifugation, added with 400 μL/well of Perm III (BD Biosciences), followed by further incubation at 4° C. for 30 min. The obtained mixture was added with mouse anti-human pSTAT5 antibody (Alexa Fluor® 647 Conjugate), followed by incubation at room temperature for 40 min. Fluorescence intensity of pSTAT5 in CD3 positive cells was detected by FACS.
Inhibition rate at individual compound concentration was calculated with the following formula:
Inhibition rate=(MFI value(IFN-α-stimulated control)−MI value(2/10 nM compound treated group)/MFI value(IFN-α-stimulated control)[…]
wherein: MFI value meant fluorescence intensity value; IFN-α-stimulated control meant control group which was operated similarly to the experimental groups but no compound of the present invention was added.

TYK2 JH2 domain, sequence (P29597 589-875): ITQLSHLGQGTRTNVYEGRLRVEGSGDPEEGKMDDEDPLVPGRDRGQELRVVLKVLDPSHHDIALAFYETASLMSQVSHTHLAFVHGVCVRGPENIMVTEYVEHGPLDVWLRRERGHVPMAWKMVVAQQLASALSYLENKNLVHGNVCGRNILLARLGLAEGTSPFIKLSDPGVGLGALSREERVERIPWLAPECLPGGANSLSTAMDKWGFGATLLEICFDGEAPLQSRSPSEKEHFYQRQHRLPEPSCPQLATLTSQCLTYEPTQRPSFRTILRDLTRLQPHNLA

Compound | IC50 [1] | IC50 (TYK2 JH2 domain) | IC50 [2]
CCONC(=O)c1cnc(NC(=O)C2CC2)cc1Nc1cccc(-c2ncc(Cl)cn2)c1OC [Example 219, 4-((3-(5-chloropyrimidin-2-yl)-2-methoxyphenyl)amino)-6-(cyclopropylcarboxamido)-N-ethoxy nicotinamide] | > 10000 nM | 0.13 nM | < 2 nM
CCONC(=O)c1cnc(Nc2cc(C)nc(C)n2)cc1Nc1cccc(-c2ncc(C)cn2)c1OC [Example 238, 6-((2,6-dimethylpyrimidin-4-yl)amino)-N-ethoxy-4-((2-methoxy-3-(5-methylpyrimidin-2-yl)phenyl)amino)nicotinamide] | > 10000 nM | – | < 2 nM
CCONC(=O)c1cnc(Nc2cc(C)nc(C)n2)cc1Nc1cc(F)cc(-c2ncccn2)c1OC [Example 215, 6-((2,6-dimethylpyrimidin-4-yl)amino)-N-ethoxy-4-((5-fluoro-2-methoxy-3-(pyrimidin-2-yl)phenyl)amino)nicotinamide] | > 10000 nM | 0.07 nM | < 2 nM
CCONC(=O)c1cnc(Nc2cc(C)nc(C)n2)cc1Nc1cccc(-c2ncccn2)c1OC [Example 212] | > 10000 nM | 0.05 nM | < 2 nM
CCONC(=O)c1cnc(Nc2cc(C)nc(C)n2)cc1Nc1ccc(C(F)(F)F)cc1N(C)S(C)(=O)=O [Example 202, 6-((2,6-dimethylpyrimidin-4-yl)amino)-N-ethoxy-4-((2-(N-methylmethanesulfonamido)-4-(trifluoromethyl)phenyl)amino)nicotinamide] | > 10000 nM | 0.06 nM | < 2 nM
